Experimental data taken from ChEMBL document CHEMBL1201862, “PubChem BioAssay data set” (2004).
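Values below derive from 48-hour exposures of cells grown in 96-well plates, with endpoints linearly interpolated between the two concentrations bracketing the appropriate inhibition level. Abbreviation: GI50, concentration required for 50% inhibition of growth.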 The source made the active and inactive calls. Rule as the data show it: active = GI50 up to about 1.1 µM and inactive = higher.

Legend:
Experiment in all cases: growth of human tumour cells (NCI), 48 h
HT-29 = tested on: HT-29
KM12 = tested on: KM12
A549 = tested on: A549
SR = tested on: SR
SF-295 = tested on: SF-295
OVCAR-5 = tested on: OVCAR-5
HOP-92 = tested on: HOP-92
HCC 2998 = tested on: HCC 2998
COLO 205 = tested on: COLO 205
OVCAR-3 = tested on: OVCAR-3
SNB-75 = tested on: SNB-75
UACC-62 = tested on: UACC-62
CCRF-CEM = tested on: CCRF-CEM
UACC-257 = tested on: UACC-257
DMS-114 = tested on: DMS-114
SK-OV-3 = tested on: SK-OV-3
MOLT-4 = tested on: MOLT-4
SK-MEL-2 = tested on: SK-MEL-2
U-251 = tested on: U-251
Hs-578T = tested on: Hs-578T

| SMILES | GI50 (HT-29) | GI50 (KM12) | GI50 (A549) | GI50 (SR) | GI50 (SF-295) | GI50 (OVCAR-5) | GI50 (HOP-92) | GI50 (HCC 2998) | GI50 (COLO 205) | GI50 (OVCAR-3) | GI50 (SNB-75) | GI50 (UACC-62) | GI50 (CCRF-CEM) | GI50 (UACC-257) | GI50 (DMS-114) | GI50 (SK-OV-3) | GI50 (MOLT-4) | GI50 (SK-MEL-2) | GI50 (U-251) | GI50 (Hs-578T) |
| --- | --- | --- | --- | --- | --- | --- | --- | --- | --- | --- | --- | --- | --- | --- | --- | --- | --- | --- | --- | --- |
| COc1cc(OC(=O)c2c(O)cc(O)c(O)c2C)cc(C)c1C(=O)Oc1cc(C)c(C(=O)O)c(O)c1 | > 100 µM (inactive) | > 100 µM (inactive) | > 100 µM (inactive) | > 100 µM (inactive) | > 100 µM (inactive) | > 100 µM (inactive) | > 100 µM (inactive) | > 100 µM (inactive) | > 100 µM (inactive) | > 100 µM (inactive) | > 100 µM (inactive) | > 100 µM (inactive) | > 100 µM (inactive) | > 100 µM (inactive) | > 100 µM (inactive) | > 100 µM (inactive) | > 100 µM (inactive) | > 100 µM (inactive) | > 100 µM (inactive) |  |
| O=C(/C=C/c1ccccc1F)c1ccc(Cl)c(Cl)c1 | 27.3 µM (inactive) | 19.9 µM (inactive) | 64 µM (inactive) | 33.3 µM (inactive) | 39.3 µM (inactive) | > 87.1 µM (inactive) | > 100 µM (inactive) | 24.7 µM (inactive) | 75.3 µM (inactive) | > 44.8 µM (inactive) | 39.3 µM (inactive) | 52.8 µM (inactive) | 23.3 µM (inactive) | 49.4 µM (inactive) | 24 µM (inactive) | > 100 µM (inactive) | 27.4 µM (inactive) | > 75 µM (inactive) | > 10 µM (inactive) |  |
| COc1ccccc1NC(=O)C1=C(C)NC(C)=C(C(=O)Nc2ccccc2OC)C1/C=C/c1ccccc1 | > 100 µM (inactive) | > 100 µM (inactive) | 80.9 µM (inactive) | 51.8 µM (inactive) | > 100 µM (inactive) | > 100 µM (inactive) | > 100 µM (inactive) | > 100 µM (inactive) | > 100 µM (inactive) | > 100 µM (inactive) | 25.8 µM (inactive) | 97.9 µM (inactive) | 49.1 µM (inactive) | > 100 µM (inactive) | 61.7 µM (inactive) | > 100 µM (inactive) | 39.4 µM (inactive) | > 100 µM (inactive) | > 100 µM (inactive) |  |
| OCCC1(O)CCC(O)CC1 (stereo not drawn) | > 100 µM (inactive) | > 100 µM (inactive) | > 100 µM (inactive) | > 100 µM (inactive) | > 100 µM (inactive) | > 100 µM (inactive) | > 100 µM (inactive) | > 100 µM (inactive) | > 100 µM (inactive) | > 100 µM (inactive) | 75.7 µM (inactive) | > 100 µM (inactive) | > 100 µM (inactive) | > 100 µM (inactive) | > 100 µM (inactive) | > 100 µM (inactive) | > 100 µM (inactive) | > 100 µM (inactive) | > 100 µM (inactive) |  |
| C[C@]12CCCC(=O)C1(O)C[C@H](C(=O)O)CC2 (stereo partly drawn) | > 100 µM (inactive) | > 100 µM (inactive) | > 100 µM (inactive) | > 100 µM (inactive) | > 100 µM (inactive) | > 100 µM (inactive) | > 100 µM (inactive) | > 100 µM (inactive) | > 100 µM (inactive) | > 100 µM (inactive) | > 100 µM (inactive) | > 100 µM (inactive) | > 100 µM (inactive) | > 100 µM (inactive) | > 100 µM (inactive) | > 100 µM (inactive) | > 100 µM (inactive) | > 100 µM (inactive) | > 100 µM (inactive) |  |
| CCN(CC)CCNc1ccc2nc(C)n3c4ccc(OC)cc4c(=O)c1c23 | 0.323 µM (active) | 1.8 µM (inactive) | 0.668 µM (active) | 0.165 µM (active) | 0.641 µM (active) | 4.82 µM (inactive) | 5.92 µM (inactive) | 0.8 µM (active) | 0.693 µM (active) | 3.14 µM (inactive) | 4.68 µM (inactive) | 4.9 µM (inactive) | 0.126 µM (active) | 8.75 µM (inactive) | 2.58 µM (inactive) | 5.48 µM (inactive) | 0.0959 µM (active) | 12.4 µM (inactive) | 4.39 µM (inactive) | 1.04 µM (active) |
| COc1cc(C2Oc3cc(-c4oc5cc(O)cc(O)c5c(=O)c4O)ccc3OC2CO)ccc1O (stereo not drawn) [DEHYDROSILYLBIN] | 25.9 µM (inactive) | 20.1 µM (inactive) | 9.14 µM (inactive) | 4.61 µM (inactive) | 10.7 µM (inactive) |  | 10.5 µM (inactive) | 24.8 µM (inactive) | 26.7 µM (inactive) | 21.5 µM (inactive) | 5 µM (inactive) | 3.42 µM (inactive) | 5.77 µM (inactive) | 32 µM (inactive) | 9.86 µM (inactive) | 21.4 µM (inactive) | 3.9 µM (inactive) | 7.38 µM (inactive) | 6.68 µM (inactive) |  |
